Source: patent US20150329558A1, “FUSED HETEROCYCLIC COMPOUNDS AS ION CHANNEL MODULATORS” (Gilead Sciences, Inc., priority 2011, published 2015)

What was measured:
[1] = Microsomal stability assay, rat; assay type: in vitro ADME; details: metabolic stability, rat liver microsomes 0.5 mg/mL, substrate 3 uM
Summary of the method: (§1)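 Liver microsomes at 0.5 mg/mL protein in 100 mM KPO4 buffer, incubated with 3 uM compound and NADPH-regenerating system, run in duplicate. Samples taken at 2, 12, 25, 45 and 65 min and quenched in MeOH/ACN/water before analysis.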

[2] = Microsomal stability assay, human; assay type: in vitro ADME; details: metabolic stability, human liver microsomes 0.5 mg/mL, substrate 3 uM
Summary of the method: as §1

[3] = molecular target: T1, hNav1.1 (Homo sapiens, UniProt P35498); test: Nav1.1 use-dependent block, whole-cell voltage clamp; assay type: cell-based; details: use-dependent block 10 Hz, read-out: NAv1.1*-CHAN TEST-UDB-10 HZ-
T1 construct: expressed in transfected cells; host or cells: HEK293, transient transfection (α1:β1:β2 = 10:1:1)

[4] = molecular target: T2, Human Nav1.2 (Homo sapiens, UniProt Q99250); test: Nav1.2 use-dependent block, whole-cell voltage clamp; assay type: cell-based; details: use-dependent block 10 Hz, read-out: NAv1.2*-CHAN TEST-UDB-10 HZ-
T2 construct: expressed in transfected cells
Description: Wild-type (WT) cDNA stably transfected in Chinese hamster ovary (CHO) cells is used to record INa. Unless otherwise noted, all reagents are purchased from Sigma-Aldrich (St Louis, Mo., U.S.A.).
Whole-cell voltage-clamp recordings are used to measure the biophysical properties of WT. Briefly, the pipette solution consists of (in mM) 110 CsF, 10 NaF, 20 CsCl, 2 EGTA, 10 HEPES, with a pH of 7.35 and osmolarity of 300 mOsmol/kg. The bath (control) solution contains in (mM): 145 NaCl, 4 KCl, 1.8 CaCl2, 1 MgCl2, 10 dextrose, 10 HEPES, with a pH of 7.35 and osmolarity of 310 mOsmol/kg. Cells are allowed to stabilize for 10 min after establishment of the whole-cell configuration before current is measured. Series resistance is compensated 90% to assure that the command potential is reached within microseconds with a voltage error <2 mV. Leak currents are subtracted by using an online P/4 procedure and all currents are low-pass Bessel filtered at 5 kHz and digitized at 50 kHz.
Tonic block of peak current is measured using a step to −10 mV (20 ms) from a holding potential of −120 mV (0.2 Hz). Use-dependent block of peak current is measured during pulse number 300 of a pulse train (−10 mV, 5 ms, 300 pulses, 10 Hz or 25 Hz) from a holding potential of −120 mV. Two sequential pulse train stimulations are averaged to obtain mean current traces for each recording condition, which are then used for offline subtraction and analysis.
For use-dependent studies, cells are stimulated with depolarizing pulse trains (−10 mV, 5 ms, 300 pulses, 10 and 25 Hz) from a holding potential of −120 mV. Currents are then normalized to the peak current recorded in response to the first pulse in each frequency train. For tonic block studies, peak current is evaluated in response to a 20 ms depolarization to −10 mV (0.2 Hz). Data analysis is performed using Clampfit 9.2 (Axon Instruments, Union City, Calif., U.S.A), Excel 2002 (Microsoft, Seattle, Wash., U.S.A.), and OriginPro 7.0 (OriginLab, Northampton, Mass., U.S.A) software. Results are presented as mean±SEM.
A stock solution of 10 mM compound of Formula I is prepared in 0.1 M HCl or DMSO. A fresh dilution of the compound of Formula I in the bath solution is prepared every experimental day and the pH is readjusted to 7.35 as necessary. The final DMSO concentration was kept at 0.1% in all solutions. Direct application of the perfusion solution to the clamped cell is achieved using the Perfusion Pencil system (Automate, Berkeley, Calif.). Direct cell perfusion is driven by gravity at a flow rate of 350 μL/min using a 250 micron tip. This system sequesters the clamped cell within a perfusion stream and enables complete solution exchange within 1 second. The clamped cell is perfused continuously starting immediately after establishing the whole-cell configuration. Control currents are measured during control solution perfusion.
Solutions are perfused for three minutes prior to current recordings to allow equilibrium (tonic) drug block. Tonic block of peak currents is measured from this steady-state condition. Three sequential current traces are averaged to obtain a mean current for each recording. The mean current traces are utilized for offline analysis. Use-dependent block of peak current is measured during pulse number 300 of the pulse train, (−10 mV, 5 ms, 300 pulses, 10 Hz) from a holding potential of −120 mV. Two sequential pulse train stimulations are averaged to obtain mean current traces for each recording condition, which are then used for offline subtraction and analysis. Where appropriate, concentration inhibition curves are fit with the Hill equation: I/Imax=1/[1+10̂(log IC50−I)*k], where IC50 is the concentration that produces half inhibition and k is the Hill slope factor.

T2 sequence (Q99250 whole entry): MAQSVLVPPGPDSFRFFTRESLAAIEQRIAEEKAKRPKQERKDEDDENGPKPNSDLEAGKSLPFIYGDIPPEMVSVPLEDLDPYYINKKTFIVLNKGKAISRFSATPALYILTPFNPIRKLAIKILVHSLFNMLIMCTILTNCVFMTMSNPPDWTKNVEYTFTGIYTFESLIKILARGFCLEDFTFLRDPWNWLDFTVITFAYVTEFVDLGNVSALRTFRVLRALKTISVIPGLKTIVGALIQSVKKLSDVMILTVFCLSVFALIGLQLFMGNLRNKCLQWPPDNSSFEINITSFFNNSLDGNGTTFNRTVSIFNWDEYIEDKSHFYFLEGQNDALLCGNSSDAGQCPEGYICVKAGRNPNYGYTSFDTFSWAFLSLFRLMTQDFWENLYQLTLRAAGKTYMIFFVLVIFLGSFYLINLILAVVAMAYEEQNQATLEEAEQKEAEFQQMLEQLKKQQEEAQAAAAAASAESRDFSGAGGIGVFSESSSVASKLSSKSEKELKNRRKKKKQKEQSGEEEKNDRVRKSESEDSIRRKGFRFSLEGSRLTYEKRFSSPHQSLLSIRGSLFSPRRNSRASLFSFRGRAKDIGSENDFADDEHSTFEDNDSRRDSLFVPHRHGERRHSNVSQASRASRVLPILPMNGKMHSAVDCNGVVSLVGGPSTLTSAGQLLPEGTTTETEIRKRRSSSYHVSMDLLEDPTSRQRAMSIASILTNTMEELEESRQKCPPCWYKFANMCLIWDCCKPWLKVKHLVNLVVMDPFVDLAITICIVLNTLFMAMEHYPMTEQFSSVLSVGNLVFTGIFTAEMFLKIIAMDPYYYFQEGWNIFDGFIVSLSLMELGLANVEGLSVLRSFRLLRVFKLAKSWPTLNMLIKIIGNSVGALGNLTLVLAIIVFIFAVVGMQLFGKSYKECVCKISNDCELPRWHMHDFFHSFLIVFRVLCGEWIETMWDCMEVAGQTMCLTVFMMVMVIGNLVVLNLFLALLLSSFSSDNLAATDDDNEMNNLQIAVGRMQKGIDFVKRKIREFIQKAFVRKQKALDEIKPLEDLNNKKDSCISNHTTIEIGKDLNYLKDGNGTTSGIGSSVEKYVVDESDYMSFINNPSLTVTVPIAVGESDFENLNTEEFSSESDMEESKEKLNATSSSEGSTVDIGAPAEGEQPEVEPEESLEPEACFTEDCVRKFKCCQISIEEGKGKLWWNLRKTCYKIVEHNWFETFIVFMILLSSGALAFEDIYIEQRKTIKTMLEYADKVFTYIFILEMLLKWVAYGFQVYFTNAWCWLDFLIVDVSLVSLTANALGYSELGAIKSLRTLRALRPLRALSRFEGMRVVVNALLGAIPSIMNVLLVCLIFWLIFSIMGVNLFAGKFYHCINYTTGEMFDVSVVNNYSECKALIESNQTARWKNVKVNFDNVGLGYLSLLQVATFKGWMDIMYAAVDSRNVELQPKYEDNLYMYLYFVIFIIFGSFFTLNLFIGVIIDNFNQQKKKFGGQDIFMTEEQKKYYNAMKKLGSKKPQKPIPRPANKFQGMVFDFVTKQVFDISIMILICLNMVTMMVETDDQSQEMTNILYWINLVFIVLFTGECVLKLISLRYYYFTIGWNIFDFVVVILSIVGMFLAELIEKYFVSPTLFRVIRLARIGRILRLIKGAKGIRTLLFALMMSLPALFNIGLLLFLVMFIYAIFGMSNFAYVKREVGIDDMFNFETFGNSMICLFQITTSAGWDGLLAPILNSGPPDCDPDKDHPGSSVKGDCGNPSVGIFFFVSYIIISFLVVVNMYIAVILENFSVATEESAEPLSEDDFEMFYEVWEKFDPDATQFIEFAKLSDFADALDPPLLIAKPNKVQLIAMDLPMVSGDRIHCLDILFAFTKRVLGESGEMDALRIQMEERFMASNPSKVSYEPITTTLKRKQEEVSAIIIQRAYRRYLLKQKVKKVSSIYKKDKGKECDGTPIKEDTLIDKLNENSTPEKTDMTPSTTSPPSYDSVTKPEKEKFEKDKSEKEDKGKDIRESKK

Row | Compound | MS Rat THalf [1] [min] | MS Human THalf [2] [min] | inhibition at 1 µM [3] [%] | inhibition at 1 µM [4] [%]
1 | Cc1noc(Cn2nnc3ccc(-c4ccc(OC(F)(F)F)cc4)cc3c2=O)n1 [II-3, 3-((3-methyl-1,2,4-oxadiazol-5-yl)methyl)-6-(4-(trifluoromethoxy)phenyl)benzo[d][1,2,3]triazin-4(3H)-one] | 249 | 336 | -6 | -3.2
2 | O=C1c2cc(-c3ccc(OC(F)(F)F)cc3)ccc2CCN1Cc1ncccn1 [IX-1, 2-(pyrimidin-2-ylmethyl)-7-(4-(trifluoromethoxy)phenyl)-3,4-dihydroisoquinolin-1(2H)-one] | 150 | > 395 | -5.9 | 3.8
3 | O=c1c2cc(-c3ccc(OC(F)(F)F)cc3)ccc2nnn1Cc1noc(C2CC2)n1 [II-14, 3-((5-cyclopropyl-1,2,4-oxadiazol-3-yl)methyl)-6-(4-(trifluoromethoxy)phenyl)benzo[d][1,2,3]triazin-4(3H)-one] | 375 | 236 | 19.5 | -0.7

Other lines, results leading:

Row | MS Rat THalf [1] [min] | MS Human THalf [2] [min] | inhibition at 1 µM [3] [%] | inhibition at 1 µM [4] [%] | Compound
4 | 281 | > 395 | 1.5 | 16.8 | Cn1cnc(C(=O)N2CCc3ccc(-c4ccc(C(F)(F)F)cc4)cc3C2)c1 [IX-39, (1-methyl-1H-imidazol-4-yl)(7-(4-(trifluoromethyl)phenyl)-3,4-dihydroisoquinolin-2(1H)-yl)methanone]
5 | 152 | 221 | 12.1 | 18.2 | CC1Oc2ccc(-c3ccc(OC(F)(F)F)cc3)cc2C(=O)N1Cc1ncccn1 (centres unmarked) [VIII-7, 2-methyl-3-(pyrimidin-2-ylmethyl)-6-(4-(trifluoromethoxy)phenyl)-2H-benzo[e][1,3]oxazin-4(3H)-one]
